Results reported in PubChem BioAssay (NCI).
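Each compound was tested at five concentrations against cells in 96-well plates for 48 hours. At the GI50, growth is halved. TGI denotes the concentration required for complete inhibition of growth.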

Legend:
Assay in all cases: NCI anticancer screen, dose series, 48 h
BT-549 breast = system: BT-549 breast
DU-145 prostate = system: DU-145 prostate
HS 578T breast = system: HS 578T breast
MDA-MB-231 breast = system: MDA-MB-231 breast
MDA-MB-435 = system: MDA-MB-435
NCI/ADR-RES ovarian = system: NCI/ADR-RES ovarian

Compound	TGI (BT-549 breast)	TGI (DU-145 prostate)	TGI (HS 578T breast)	TGI (MDA-MB-231 breast)	TGI (MDA-MB-435)	TGI (NCI/ADR-RES ovarian)	GI50 (BT-549 breast)	GI50 (DU-145 prostate)	GI50 (HS 578T breast)	GI50 (MDA-MB-231 breast)	GI50 (MDA-MB-435)	GI50 (NCI/ADR-RES ovarian)
COc1cc(OC)c2nccc(NCCCN(C)C)c2c1[N+](=O)[O-]	> 100 µM	> 100 µM	> 100 µM	> 100 µM	> 100 µM	> 100 µM	–	–	–	–	–	–
Cc1cc(Nc2nc(-c3cccnc3)nc3ccccc23)n[nH]1	> 100 µM	> 100 µM	3.74 µM	> 100 µM	> 100 µM	> 92.7 µM	4.24 µM	10.7 µM	0.364 µM	17.3 µM	0.647 µM	5.13 µM
COc1ccc(/C=c2\sc3n(c2=O)C2C(NN=3)N(C)C(=O)N2C)cc1 (centres undefined)	> 100 µM	> 100 µM	8.96 µM	> 100 µM	0.759 µM	> 40.9 µM	0.589 µM	1.32 µM	0.659 µM	2.77 µM	0.2 µM	0.579 µM
CN(COC(=O)c1ccccc1)c1nc(N(C)COC(=O)c2ccccc2)nc(N(C)COC(=O)c2ccccc2)n1	–	> 100 µM	> 100 µM	53.4 µM	> 100 µM	> 100 µM	–	–	–	–	–	–
O=[N+]([O-])c1ccc(Oc2nc(Nc3ccc(O[C@H]4CO[C@H]5[C@@H]4OC[C@@H]5O)c(Cl)c3)ncc2F)c(Cl)c1	3.36 µM	5.45 µM	3.43 µM	7.39 µM	3.5 µM	> 100 µM	1.29 µM	0.917 µM	0.516 µM	1.6 µM	1.2 µM	9.04 µM
Oc1ccc(-c2nc3ccc4[nH]ncc4c3c3c2CCCC3)c(F)c1	8.87 µM	13.2 µM	8.98 µM	10.5 µM	10.9 µM	53.3 µM	1.73 µM	2.89 µM	2.35 µM	2.79 µM	1.75 µM	3.91 µM
CCN1C(=O)CCCc2c1ccc(Nc1ncc(Cl)c(NC3[C@@H](C(N)=O)[C@@H]4C=C[C@H]3C4)n1)c2OC (some centres undefined)	17.4 µM	14.6 µM	8.26 µM	14.4 µM	9.85 µM	> 100 µM	3.61 µM	1.81 µM	1.88 µM	1.95 µM	0.917 µM	2.35 µM
COc1ccc(C(c2ccc(OCCN(C)C)cc2)c2cc3ccccc3c3ccccc23)cc1 (centres undefined)	3.35 µM	3.37 µM	3.62 µM	3.22 µM	3.14 µM	3.39 µM	1.78 µM	1.77 µM	1.66 µM	1.68 µM	1.71 µM	1.71 µM
N#Cc1c(Br)n(C2OC(CO)C(O)C2O)c2ncnc(N)c12 (centres undefined)	15 µM	23.9 µM	8.54 µM	> 79.9 µM	> 46.2 µM	52.5 µM	1.58 µM	0.844 µM	0.696 µM	3.82 µM	1.24 µM	1.43 µM
Cn1nc(-c2ccc(Cl)cc2)nc2c(=O)n(C)c(=O)nc1-2	1.94 µM	1.63 µM	3.51 µM	7.34 µM	0.405 µM	4.47 µM	0.968 µM	0.89 µM	1.35 µM	1.28 µM	0.137 µM	1.33 µM
O=C(O)C1CC2(C1)CC(C(=O)O)C2 (centres undefined)	> 100 µM	> 100 µM	> 100 µM	> 100 µM	> 100 µM	> 100 µM	–	–	–	–	–	–
Cc1cc(S(=O)(=O)/N=C/N(C)C)c(SC(=O)c2ccc(Cl)cc2)cc1Cl	50.4 µM	> 100 µM	65 µM	69.9 µM	70.4 µM	72.2 µM	18.7 µM	19.1 µM	20.7 µM	25.8 µM	25.1 µM	28.4 µM
CC(C)(C)c1ccc(OC(=O)Nc2ccc(O)c(C(=O)O)c2)cc1	> 100 µM	> 100 µM	> 100 µM	> 100 µM	> 100 µM	> 100 µM	–	–	–	–	–	–
COc1cccc(-c2ccc3c(c2)C2CCN(Cc4ccccc4)C3C2)c1 (centres undefined)	21.1 µM	43.9 µM	31 µM	19 µM	7.29 µM	32.5 µM	6.12 µM	16.4 µM	8.64 µM	5.61 µM	2.43 µM	8.94 µM
COc1cccc(-c2nn(-c3ccccc3)cc2-c2ccnc(NCCNC(=O)Nc3cccc(C(F)(F)F)c3)c2)c1	13.1 µM	14.9 µM	5.2 µM	4.58 µM	3.38 µM	5.82 µM	3.4 µM	4.16 µM	1.99 µM	1.97 µM	1.75 µM	2.22 µM
CC(=O)N1N=C(c2ccc(Nc3ccnc4cc(Cl)ccc34)cc2)CC1c1ccc(Cl)cc1 (centres undefined)	> 100 µM	> 100 µM	> 100 µM	> 100 µM	> 100 µM	> 100 µM	5.4 µM	> 100 µM	> 100 µM	> 100 µM	0.566 µM	3.04 µM
COc1cccc(CSCC(=O)O)c1	> 100 µM	> 100 µM	> 100 µM	> 100 µM	> 100 µM	> 100 µM	–	–	–	–	–	–
CN(Cc1cccc(F)c1)c1ccc(CO)c(Cl)c1	60.9 µM	> 100 µM	> 100 µM	> 100 µM	57.6 µM	58 µM	17.9 µM	29.7 µM	25 µM	24.7 µM	15.7 µM	17.5 µM
NC1=NC(c2ccc(Cl)cc2)N(c2ccc(S(N)(=O)=O)cc2)C(N)=N1 (centres undefined)	> 100 µM	> 100 µM	> 100 µM	> 100 µM	> 100 µM	> 100 µM	–	–	–	–	–	–
CC(=O)OC1=CC2=CC[C@H]3[C@@H]4CCC(=O)[C@@]4(C)CC(=O)[C@]3(S)[C@@]2(C)CC1	> 100 µM	> 100 µM	74.6 µM	66.8 µM	> 100 µM	> 100 µM	–	–	–	–	–	–
Clc1ccc(-c2csc(Nc3cccc(-c4csc(-c5ccccc5)n4)c3)n2)cc1	31.4 µM	17.5 µM	> 50 µM	15.3 µM	21.6 µM	24.2 µM	15.8 µM	9.15 µM	20.6 µM	6.77 µM	9.05 µM	13 µM
